Experimental data as given in US20050032841A1, “Therapeutic compositions and methods of treating glycolipid storage related disorders” (priority 1999, published 2005).
Where “and” joins values, the source holds several entries; their conditions need not be identical. Equal entries are not always repeated.

Experiments:
GSL synthesis = settings: compared with NB-DNJ; cited from earlier work
α-glucosidase I and II = settings: cited from earlier work
MPS IIIA mice = assay: Murine model of MPS IIIA: brain immunocytochemistry (GM2, GM3) and auto-fluorescent material; assay type: in vivo
Source text: Colonies of mutant mice expressing the MPS IIIA phenotype have been described, and have been validated by a number of criteria as an authentic model of the disease (Stanley, P et al (1999) Glycobiology 9: 1389-1396). MPS IIIA mice display clinical signs of the disease around 6 months of age with decreased activity, scruffy coat, abdominal distention, hunched posture and waddling gait. […] Death results by 18 months or less.
The brains of MPS mice are grossly normal. […] White matter and Purkinje cells display axonal spheroids. Anti-heparan sulfate immunostaining indicates accumulation of heparan sulfate fragments in the cerebral cortex of MPS IIIA animals.
MPS IIIA mice were treated with 1200 mg/kg/day, beginning at 4 weeks of age, with NB-DNJ. Brain samples from animals were taken at 8 weeks of age (4 weeks of treatment with NB-DNJ) and subjected to immunocytochemistry with an anti-GM2 ganglioside-specific monoclonal antibody. […] Upper cortex, ii. Lower cortex; B: NB-DNJ Treated, i. Upper cortex, ii. Lower cortex.
The hippocampus (CA4-Dentate Gyrus) of the MPS IIIA animals was also examined for staining by a GM2 Ganglioside-specific monoclonal antibody.
Cerebral cortex samples from animals were also taken at 40 weeks of age (36 weeks of treatment with NB-DNJ) and subjected to immunocytochemistry with an anti-GM3 ganglioside-specific monoclonal antibody. Anti-GM2 staining was similar to anti-GM3 staining in both treated and untreated animals, respectively (data not shown).
The brains of animals affected by MPS IIIA, as well as some other of the mucopolysaccharidoses, store heterogeneous auto-fluorescent material in addition to glycolipids. Thus, the cerebral cortex of MPS IIIA animals either left untreated or treated for 36 weeks with NB-DNJ were also examined for the presence of auto-fluorescent material.

[1] = system: mouse model of Tay-Sachs disease; settings: asymptomatic Tay-Sachs mouse model; cited from earlier work
[2] = system: in vitro model of Gaucher disease; settings: cited from earlier work
[3] = Serum enzyme activity and half life of Ceredase after i.v. injection in mice, with or without NB-DNJ pre-treatment; assay type: in vivo; design: unit not given here; settings: mice treated with NB-DNJ 4800 mg/kg/day for 5 weeks
Method: A group of mice were treated with NB-DNJ at 4800 mg/kg/day for 5 weeks. After a low intravenous dose (5-10 U/kg) of Ceredase™ (Genzyme Corporation) administered as a single injection via the tail vein, serum enzyme activity was measured by taking sequential serum samples from the tail vein to monitor enzyme activity over time. Ceredase™ is a modified form of β glucocerebrosidase.

Sandhoff mice = assay: Survival of Sandhoff mice treated with NB-DNJ and/or bone marrow transplantation; assay type: in vivo; settings: BMT at two weeks of age, NB-DNJ 600 mg/kg/day from 9.5-11 weeks of age

CCCCN1C[C@H](O)[C@@H](O)[C@@H](O)[C@H]1CO [NB-DGJ, N-butyldeoxygalactonojirimycin]
Inhibition of GSL synthesis in vitro (GSL synthesis): as effectively as NB-DNJ
Inhibition of α-glucosidase I and II (α-glucosidase I and II): does not inhibit

CCCCN1C[C@H](O)[C@@H](O)[C@H](O)[C@H]1CO [NB-DNJ, N-butyldeoxynojirimycin]
Pathological features in the model of MPS IIIA (MPS IIIA mice; NB-DNJ 1200 mg/kg/day): markedly reduces the pathological features
Glycolipid storage in neuronal cells (MPS IIIA mice; NB-DNJ 1200 mg/kg/day from 4 weeks of age, anti-GM2/GM3 immunocytochemistry): markedly reduced
Storage of auto-fluorescent material in cerebral cortex (MPS IIIA mice; NB-DNJ 1200 mg/kg/day, 36 weeks of treatment): reduced the storage of auto-fluorescent material
GM2 accumulation in the brain and associated neuropathology [1]: reduce GM2 accumulation in the brain and prevent the neuropathology
Storage in in vitro model of Gaucher disease [2]: shown to prevent storage
Peak Activity of Ceredase in serum, mean ± sem ([3]; Ceredase 5-10 U/kg i.v., group mean): 27.4 ± 7.2
Peak Activity of Ceredase in serum ([3]; Ceredase 5-10 U/kg single i.v. injection, individual mice): 13.9 and 32.1 and 24.1 and 13.1 and 21.0 and 68.3 and 19.2
Survival (longest survivor) (Sandhoff mice): 170 days
